The values that follow come from patent US8148424B2, “Tocopherols, tocotrienols, other chroman and side chain derivatives and uses thereof” (Research Development Foundation, priority 1998, dated 2012).

Each structure is given as a SMILES string. Values after ≈ are worked out from the molar mass of the structure shown.

The EC50 is the midpoint of the concentration-response curve.

One assay concerns C-170. Briefly: Bioassay for apoptosis (apoptotic EC50). In kind it is cell-based, human. Particulars: for EC50: Homo sapiens, C170, C-170, unit inferred. The method, then: (§1) Cells were cultured at 1.5×10^5 cells/well in 12 well plates. Cells were allowed to adhere overnight, then incubated with novel test compounds at 0.01, 0.1, 1, 5, 10 & 20 μg/mL for 1, 2 and 3 days. After treatment, cells (floating+trypsin released adherent cells) were pelleted, washed and stained with 2 μg/ml DAPI (4′,6-diamidine-2′-phenylindole dihydrochloride) in 100% methanol for 15 minutes at 37° C. and/or 3′-OH ends resulting from DNA fragmentation were detected with the TUNEL (terminal deoxynucleotidyl transferase-mediated dUTP-X 3′ nick end-labeling) technique, and then viewed using a Zeiss ICM 405 microscope. Cells whose nucleus contained clearly condensed or fragmented chromatin or stained for fragmented DNA in the TUNEL assay were scored as apoptotic. Data are presented as percent cells undergoing apoptosis.

The next assay concerns HL-60. Briefly: Bioassay for apoptosis (apoptotic EC50). In kind it is cell-based, human. Particulars: for EC50: Homo sapiens, HL-60, HL-60, unit inferred. The method, then: as §1
A further assay deals with LnCaP. Briefly: Bioassay for apoptosis (apoptotic EC50). In kind it is cell-based, human. Particulars: for EC50: Homo sapiens, unit inferred. As for the experimental part:
as §1

The next assay concerns MCF-7. Briefly: Bioassay for apoptosis (apoptotic EC50). In kind it is cell-based, human. Particulars: for EC50: Homo sapiens, MCF7, MCF-7, unit inferred. The method, then:
as §1

In a further assay the test system is MDA-MB-231. Briefly: Bioassay for apoptosis (apoptotic EC50). In kind it is cell-based, human. Particulars: for EC50: Homo sapiens, MDA-MB-231, MDA-MB-231, unit inferred. The method, then: as §1
Another assay deals with MDA-MB-435. Briefly: Bioassay for apoptosis (apoptotic EC50). Particulars: for EC50: Homo sapiens, MDA-MB-435, MDA-MB-435, unit inferred, read-out: apoptotic EC50. In kind it is cell-based, human. As for the experimental part: as §1
The subject of the next assay is ME-180. Briefly: Bioassay for apoptosis (apoptotic EC50). In kind it is cell-based, human. Particulars: for EC50: Homo sapiens, ME-180, ME-180, unit inferred. As for the experimental part:
as §1

The test system of a further assay is PC-3. Briefly: Bioassay for apoptosis (apoptotic EC50). The format is cell-based, human. Particulars: for EC50: Homo sapiens, PC-3, PC-3, unit inferred. The method, then:
as §1

A further assay relates to RL-95-2. Briefly: Bioassay for apoptosis (apoptotic EC50). The format is cell-based, human. Particulars: for EC50: Homo sapiens, RL95-2, RL-95-2, unit inferred. As for the experimental part:
as §1

For assay [1], the system named is human cancer cells from a wide variety of cell lineages. Briefly: Apoptosis induction in a battery of tumor cells. In kind it is cell-based. Particulars: breast, prostate, leukemia/lymphoid, cervical, ovarian, endometrial, colon, lung cell lines. The method, then: as §1
Another assay deals with HMEC. Briefly: Bioassay for apoptosis (apoptotic EC50). Particulars: Homo sapiens, unit inferred. In kind it is cell-based. As for the experimental part:
as §1

The next assay concerns MCF-10A. Briefly: Bioassay for apoptosis (apoptotic EC50). In kind it is cell-based. Particulars: Homo sapiens, unit inferred. As for the experimental part: as §1

As to `Cc1c(C)c2c(c(C)c1OCCCC(=O)O)CC[C@@](C)(CCC[C@H](C)CCC[C@H](C)CCCC(C)C)O2` [Compound 3, 2,5,7,8-tetramethyl-(2R-(4R,8R,12-trimethyltridecyl)chroman-6-yloxy) butyric acid], the “apoptotic EC50” value is given as 10-20 with C-170 (C-170, unit not given, in µg/mL); 10-20 with HL-60 (HL-60, unit not given, in µg/mL); 5-10 in the assay on LnCaP (unit not given, in µg/mL); 20-30 with MCF-7 (MCF-7, unit not given, in µg/mL); 5-10 with MDA-MB-231 (MDA-MB-231, unit not given, in µg/mL); 5-10 in the assay on MDA-MB-435 (MDA-MB-435, unit not given, in µg/mL). Also, the “apoptotic EC50” value with ME-180 (ME-180, unit not given, in µg/mL) was 10-20; in the assay with PC-3 (PC-3, unit not given, in µg/mL) it was 5-10; in the assay with RL-95-2 (RL-95-2, unit not given, in µg/mL) it was 10-20. In assay [1], the “growth inhibitory (apoptotic inducing) properties specific for human cancer cells” value (shortened to “growth inhibitory”) was “effective”.
For the compound `Cc1c(OCC(=O)O)cc2c(c1C)O[C@](C)(CCC[C@H](C)CCC[C@H](C)CCCC(C)C)CC2` [Compound 8, 2,7,8-trimethyl-(2R-(4R,8R,12-trimethyltridecyl)chroman-6-yloxy)acetic acid], the EC50 with C-170 fell in the range of 10 to 20 µg/mL (≈ 21.1 to 42.1 µM); in the assay with HL-60 it was 10 to 20 µg/mL (≈ 21.1 to 42.1 µM); in the assay with LnCaP, 5 to 10 µg/mL (≈ 10.5 to 21.1 µM); with MCF-7 it was 10 to 20 µg/mL (≈ 21.1 to 42.1 µM); in the assay on MDA-MB-231 it was 5 to 10 µg/mL (≈ 10.5 to 21.1 µM); in the assay on MDA-MB-435 it was 5 to 10 µg/mL (≈ 10.5 to 21.1 µM). Besides, the EC50 is 5 to 10 µg/mL (≈ 10.5 to 21.1 µM) with ME-180; 5 to 10 µg/mL (≈ 10.5 to 21.1 µM) in the assay on PC-3; 1 to 5 µg/mL (≈ 2.11 to 10.5 µM) in the assay with RL-95-2; over 20 µg/mL in the assay on HMEC; over 20 µg/mL in the assay on MCF-10A. In assay [1], the “growth inhibitory” value is “effective”.
Turning to `Cc1cc(OCC(=O)O)cc2c1O[C@](C)(CCC[C@H](C)CCC[C@H](C)CCCC(C)C)CC2` [Compound 9, 2,8-dimethyl-(2R-(4R,8R,12-trimethyltridecyl)chroman-6-yloxy)acetic acid], the EC50 is over 20 µg/mL with C-170; 10 to 20 µg/mL (≈ 21.7 to 43.4 µM) in the assay with HL-60; 5 to 10 µg/mL (≈ 10.9 to 21.7 µM) in the assay on LnCaP; 10 to 20 µg/mL (≈ 21.7 to 43.4 µM) with MCF-7; 5 to 10 µg/mL (≈ 10.9 to 21.7 µM) in the assay on MDA-MB-231; 5 to 10 µg/mL (≈ 10.9 to 21.7 µM) in the assay on MDA-MB-435. Moreover, the EC50 in the assay on ME-180 was 5 to 10 µg/mL (≈ 10.9 to 21.7 µM); in the assay on PC-3 it was 5 to 10 µg/mL (≈ 10.9 to 21.7 µM); with RL-95-2, 5 to 10 µg/mL (≈ 10.9 to 21.7 µM); with HMEC, over 20 µg/mL; in the assay with MCF-10A it was over 20 µg/mL. Also, in assay [1], the “growth inhibitory” value is recorded as “effective”.
As to `Cc1c(C)c2c(c(C)c1OCC(N)=O)CC[C@@](C)(CCC[C@H](C)CCC[C@H](C)CCCC(C)C)O2` [Compound 10, 2,5,7,8-tetramethyl-(2R-(4R,8R,12-trimethyltridecyl)chroman-6-yloxy)acetamide], the EC50 with C-170, in the assay on HL-60, in the assay on LnCaP, in the assay on MCF-7, with MDA-MB-231 and in the assay on MDA-MB-435 was over 20 µg/mL each time. For the same compound, the EC50 in the assay with ME-180, with RL-95-2, in the assay on HMEC and in the assay on MCF-10A was over 20 µg/mL throughout.
Consider `COC(=O)COc1c(C)c(C)c2c(c1C)CC[C@@](C)(CCC[C@H](C)CCC[C@H](C)CCCC(C)C)O2` [Compound 11, Methyl 2,5,7,8-tetramethyl-(2R-(4R,8R,12-trimethyltridecyl)chroman-6-yloxy)acetate], for which the EC50 in the assay on C-170, in the assay with HL-60, with LnCaP, in the assay with MCF-7, with MDA-MB-231 and in the assay with MDA-MB-435 was over 20 µg/mL throughout. Moreover, the EC50 with ME-180, in the assay with PC-3, in the assay with RL-95-2, in the assay on HMEC and with MCF-10A was over 20 µg/mL throughout.
In the case of `Cc1c(C)c2c(c(C)c1OCC(=O)O)CCC(C)(C)O2` [Compound 14, 2-(2,5,7,8-pentamethylchroman-6-yloxy)acetic acid], the EC50 in the assay with C-170, in the assay on HL-60, in the assay on LnCaP, in the assay with MCF-7, with MDA-MB-231 and with MDA-MB-435 was over 20 µg/mL throughout. Moreover, the EC50 with ME-180, in the assay with PC-3, with RL-95-2, in the assay with HMEC and in the assay with MCF-10A was over 20 µg/mL throughout.
